From US20130005034A1, “ARTIFICIAL PEPTIDE AND USE THEREOF” (TOAGOSEI CO., LTD, priority 2008, published 2013)
Where no end group is shown, it is not given here.

Experiments:
[1] = test system: human iPS cells (cell line: 201B2); assay: iPS cell membrane permeability of FITC-labeled peptides (FITC fluorescence intensity, confocal laser scanning microscopy); type: cell-based; details: 1 hour; for Relative Intensity (FITC fluorescence): relative to Comparative Sample 2 at 0.5 μM = 1, average of five measurements; for introduction into artificial pluripotent stem cells: 0.5 μM or 1 μM
Method: Next, the abilities of the three resulting synthesized peptides to pass through the cell membranes of artificial pluripotent stem cells (iPS cells) were investigated. Fluorescein isothiocyanate (FITC) was added beforehand to the N-terminus of each of the synthesized peptides.
The human iPS cells (cell line: 201B2) used in this example were procured from Kyoto University. The mouse embryo fibroblasts (cell line: SNL76/7) used as feeder cells were procured from ECACC, which supply the cells on commission from Dr. Allan Bradley.
The iPS cells thus acquired were cultured, using a human embryonic stem cell culture medium (DMEM/F12, containing 20% knockout serum replacement (KSR), 2 mM L-glutamine, 0.1 mM non-essential amino acids, 0.1 mM 2-mercaptoethanol, 50 units/50 μg/ml penicillin/streptomycin, and 4 ng/ml bFGF), in a 37° C., 5% CO2 environment on a gelatin-coated dish seeded with the above SNL feeder cells that had been mitomycin C-treated.
The cultured iPS cells were then treated with a CTK solution (containing 1 mg/ml collagenase IV, […], […] and 20% KSR), and recovered. Next, a suspension of microaggregates was prepared by pipetting, dispensed into each well of a commercial gelatin-coated 4-well chamber (culture) slide that had been seeded with mitomycin C-treated SNL feeder cells, and cultured in a 37° C., 5% CO2 environment for about 6 days.
The culture solution in each well was then replaced with a cell culture obtained by adding a peptide stock solution (1 mM) of any one of the above Sample 6 and Comparative Samples 1 and 2 that had been pre-labeled with FITC to a specified concentration (i.e., to a final concentration within the medium of 0.5 μM or 1 μM), and the cell culture was cultured for 1 hour in a 37° C., 5% CO2 environment.
Next, after washing with PBS, the cells within the wells were fixed with cold methanol, and were encapsulated using a DAPI-containing antifade reagent (Invitrogen).
Localization of the FITC-labeled peptides was confirmed using a confocal laser scanning microscope. Specifically, the FITC fluorescence intensity in each test group (the respective encapsulated samples to be measured) was measured by confocal laser scanning microscopic analysis. The measurement conditions were as follows.
Argon laser excitation wavelength: 488 nm
Objective lens: Plan-Apochromat 20×/0.75
The relative fluorescence intensity of each test group was calculated relative to a value of 1 for the fluorescence intensity of the test group in which Comparative Sample 2 was added to a final concentration within the culture medium of 0.5 μM. Measurement was independently carried out five times, and the average value of the five measurements was treated as the fluorescence intensity. In addition, micrographs obtained using a confocal laser scanning microscope to observe iPS cell cultures to which Sample 6 or Comparative Sample 2 was added to a final concentration of 1 μM (the above encapsulated test groups) are shown respectively in FIG. 7 (Sample 6 addition group) and FIG. 8 (Comparative Sample 2 addition group).

[2] = test system: neural stem cells collected from a rat; details: peptide 1 μM in culture broth, 24 hours
Method: That is, these sample peptides were added to a culture broth of neural stem cells collected from a rat, and incubated. The amount of peptide added was adjusted so that the peptide concentration within the culture broth became 1 μM for each peptide.
In addition, the same sample was subjected to evaluation with a neuronal differentiation induction marker. That is, using tubulin as a marker for identifying neurons, the presence or absence of tubulin (i.e., of neurons) in the culture broth was determined by a fluorescent antibody method that uses a fluorescent dye-labeled anti-tubulin antibody for identifying this tubulin. In addition, using glial fibrillary acidic protein (GFAP), which is a cytoskeletal protein in glial cells, as a marker for identifying glial cells, the presence or absence of GFAP (i.e., of glial cells) in the culture broth was determined by a fluorescent antibody method that uses a fluorescent dye-labeled anti-GFAP antibody for identifying this GFAP.

## TLKERCLQVVRSLVKSRRHHCRSKAKRSRHH [Comparative Sample 2, VHL peptide linked to the N-terminal end of hPER1-NLS]
[1]; 0.5 μM final concentration
  Relative Intensity (FITC fluorescence): 1
[1]
  introduction into artificial pluripotent stem cells: substantially not introduced
[1]; 1.0 μM final concentration
  Relative Intensity (FITC fluorescence): 4.8

## RRRRRRRRRGTLKERCLQVVRSLVK [Comparative Sample 3, VHL peptide linked through a single glycine residue to the C-terminal end of polyarginine R9]
[1]; 0.5 μM final concentration
  Relative Intensity (FITC fluorescence): <1
[1]
  introduction into artificial pluripotent stem cells: substantially not introduced
[1]; 1.0 μM final concentration
  Relative Intensity (FITC fluorescence): 2.8

## TLKERCLQVVRSLVKKKRTLRKNDRKKR [Sample 6]
[1]; 0.5 μM final concentration
  Relative Intensity (FITC fluorescence): 13.5
[1]; 1.0 μM final concentration
  Relative Intensity (FITC fluorescence): 23.2

## KKRTLRKNDRKKR [Comparative Sample 1]
[2]
  differentiation to glial cells (GFAP marker): not observed
  neuronal differentiation (differentiation from neural stem cells to neurons, tubulin marker): not observed

## SLQYLCRFVIRQYTRKKRTLRKNDRKKR-NH2 [Sample 2, SLQYLCRFVIRQYTR-KKRTLRKNDRKKR]
[2]
  differentiation to glial cells (GFAP marker): not observed
